Values after ≈ are worked out from the molar mass of the structure shown.
What was measured:
[1] = Antiproliferative activity against human KARPAS299 cells incubated for 72 hrs by cell titer-glo assay; conditions: KARPAS-299, 72 h
Insulin receptor = Insulin receptor (Homo sapiens, UniProt P06213); test: Inhibition of IR (unknown origin) in presence of gamma33-ATP
[2] = biological target: ALK tyrosine kinase receptor (Homo sapiens, UniProt Q9UM73)
Description: Inhibition of recombinant ALK (unknown origin) in presence of gamma33-ATP

[3] = Solubility of compound at pH 7 buffer; assay type: physicochemical
[4] = Apparent permeability from apical to basolateral side in human Caco2 cells at 2.5 mg/ml after 2 hrs by reversed-phase HPLC method; assay type: ADME, cell-based; conditions: Caco-2
[5] = Apparent permeability from basolateral to apical side in human Caco2 cells at 2.5 mg/ml after 2 hrs by reversed-phase HPLC method; assay type: ADME, cell-based; conditions: Caco-2
[6] = Intrinsic clearance in human liver microsomes at […] preincubated for 5 mins followed by NADPH addition measured after 5 to 30 mins by LC-MS/MS analysis; assay type: ADME; conditions: read-out: CLH
[7] = Intrinsic clearance in rat hepatocytes at […] after 10 to 90 mins by LC-MS/MS analysis; assay type: ADME, cell-based, Hepatocyte; conditions: read-out: CLH
[8] = Cmax in Harlan nu/nu mouse at 10 mg/kg, iv administered as single dose by LC-MS/MS analysis; assay type: ADME, organism-based; parameters: dose 10 mg/kg, route intravenous; conditions: in vivo
[9] = AUC (infinity) in Harlan nu/nu mouse at 10 mg/kg, iv administered as single dose by LC-MS/MS analysis; assay type: ADME, organism-based; parameters: dose 10 mg/kg, time infinity, route intravenous; conditions: in vivo
[10] = Clearance in Harlan nu/nu mouse at 10 mg/kg, iv administered as single dose by LC-MS/MS analysis; assay type: ADME, organism-based; conditions: in vivo
[11] = Volume of distribution at steady state in Harlan nu/nu mouse at 10 mg/kg, iv administered as single dose by LC-MS/MS analysis; conditions: in vivo
[12] = Half life in Harlan nu/nu mouse at 10 mg/kg, iv administered as single dose by LC-MS/MS analysis; assay type: ADME, organism-based; conditions: in vivo
[13] = Cmax in Harlan nu/nu mouse at 10 mg/kg, po administered as single dose by LC-MS/MS analysis; assay type: ADME, organism-based; parameters: dose 10 mg/kg, route oral; conditions: in vivo
[14] = Tmax in Harlan nu/nu mouse at 10 mg/kg, po administered as single dose by LC-MS/MS analysis; assay type: ADME, organism-based; conditions: in vivo
[15] = AUC (infinity) in Harlan nu/nu mouse at 10 mg/kg, po administered as single dose by LC-MS/MS analysis; assay type: ADME, organism-based; parameters: dose 10 mg/kg, route oral, time infinity; conditions: in vivo
[16] = Half life in Harlan nu/nu mouse at 10 mg/kg, po administered as single dose by LC-MS/MS analysis; assay type: ADME, organism-based; conditions: in vivo
[17] = Oral bioavailability in Harlan nu/nu mouse at 10 mg/kg administered as single dose by LC-MS/MS analysis; assay type: ADME, organism-based; conditions: in vivo

Sequence of ALK tyrosine kinase receptor (Q9UM73 whole entry): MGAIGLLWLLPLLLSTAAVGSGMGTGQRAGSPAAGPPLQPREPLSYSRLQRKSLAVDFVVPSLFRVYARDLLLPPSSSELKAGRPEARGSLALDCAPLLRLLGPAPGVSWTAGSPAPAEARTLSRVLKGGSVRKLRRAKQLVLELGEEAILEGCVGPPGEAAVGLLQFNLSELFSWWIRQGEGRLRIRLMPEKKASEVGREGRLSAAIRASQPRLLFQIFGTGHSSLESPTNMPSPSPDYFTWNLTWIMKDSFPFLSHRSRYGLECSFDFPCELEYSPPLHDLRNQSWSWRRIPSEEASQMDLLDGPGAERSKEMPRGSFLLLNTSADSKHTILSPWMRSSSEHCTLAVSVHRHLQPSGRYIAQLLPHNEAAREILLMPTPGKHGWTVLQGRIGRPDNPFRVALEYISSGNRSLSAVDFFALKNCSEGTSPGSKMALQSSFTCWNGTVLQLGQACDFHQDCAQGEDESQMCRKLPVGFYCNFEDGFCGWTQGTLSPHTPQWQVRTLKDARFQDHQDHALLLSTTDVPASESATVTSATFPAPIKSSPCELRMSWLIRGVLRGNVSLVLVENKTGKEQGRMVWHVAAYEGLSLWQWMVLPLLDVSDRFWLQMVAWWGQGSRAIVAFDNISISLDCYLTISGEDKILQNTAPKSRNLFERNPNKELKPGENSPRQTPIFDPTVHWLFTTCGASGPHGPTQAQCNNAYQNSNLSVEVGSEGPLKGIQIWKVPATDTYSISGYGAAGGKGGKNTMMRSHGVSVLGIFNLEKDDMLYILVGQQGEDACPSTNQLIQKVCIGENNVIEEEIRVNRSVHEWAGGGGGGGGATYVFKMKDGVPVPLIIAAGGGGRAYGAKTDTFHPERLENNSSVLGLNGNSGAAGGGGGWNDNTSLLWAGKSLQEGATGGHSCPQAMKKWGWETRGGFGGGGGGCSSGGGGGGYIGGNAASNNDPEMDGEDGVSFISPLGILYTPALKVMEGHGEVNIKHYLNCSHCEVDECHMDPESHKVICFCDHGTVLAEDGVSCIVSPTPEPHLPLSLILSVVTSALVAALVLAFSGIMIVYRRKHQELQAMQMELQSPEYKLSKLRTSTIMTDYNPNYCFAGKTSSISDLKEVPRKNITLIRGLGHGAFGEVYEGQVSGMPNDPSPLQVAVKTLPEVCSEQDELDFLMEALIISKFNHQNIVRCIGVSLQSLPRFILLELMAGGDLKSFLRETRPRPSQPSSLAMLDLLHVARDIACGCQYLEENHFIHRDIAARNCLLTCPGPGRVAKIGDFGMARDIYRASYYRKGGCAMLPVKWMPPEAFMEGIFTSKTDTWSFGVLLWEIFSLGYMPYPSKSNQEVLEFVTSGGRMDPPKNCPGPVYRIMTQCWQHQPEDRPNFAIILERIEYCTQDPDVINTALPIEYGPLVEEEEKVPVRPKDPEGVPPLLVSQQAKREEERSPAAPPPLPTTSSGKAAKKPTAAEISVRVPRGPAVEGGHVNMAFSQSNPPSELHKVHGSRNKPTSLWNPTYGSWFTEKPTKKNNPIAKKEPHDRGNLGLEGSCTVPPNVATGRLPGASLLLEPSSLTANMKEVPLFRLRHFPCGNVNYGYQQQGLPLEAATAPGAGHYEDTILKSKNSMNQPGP
Sequence of Insulin receptor (P06213 28-758 limits assumed): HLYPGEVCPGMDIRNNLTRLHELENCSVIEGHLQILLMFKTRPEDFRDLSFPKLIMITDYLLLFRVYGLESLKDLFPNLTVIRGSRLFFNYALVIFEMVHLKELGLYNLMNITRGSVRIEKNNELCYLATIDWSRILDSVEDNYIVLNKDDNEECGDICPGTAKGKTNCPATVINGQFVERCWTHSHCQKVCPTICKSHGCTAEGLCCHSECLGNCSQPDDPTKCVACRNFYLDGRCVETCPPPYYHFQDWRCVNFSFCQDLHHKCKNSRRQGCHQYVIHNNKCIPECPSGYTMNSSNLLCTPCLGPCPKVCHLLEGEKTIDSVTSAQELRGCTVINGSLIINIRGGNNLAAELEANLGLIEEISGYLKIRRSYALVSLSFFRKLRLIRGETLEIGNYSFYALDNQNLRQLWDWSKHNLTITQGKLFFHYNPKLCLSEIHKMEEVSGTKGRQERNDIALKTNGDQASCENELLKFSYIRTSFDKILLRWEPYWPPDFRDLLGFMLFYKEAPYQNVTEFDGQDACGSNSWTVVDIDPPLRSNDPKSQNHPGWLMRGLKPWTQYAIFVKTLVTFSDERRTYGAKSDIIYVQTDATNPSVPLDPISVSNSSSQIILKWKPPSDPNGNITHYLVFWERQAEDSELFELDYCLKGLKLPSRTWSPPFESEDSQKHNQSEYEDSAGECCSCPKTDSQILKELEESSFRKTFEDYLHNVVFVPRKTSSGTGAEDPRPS
Sequence of Insulin receptor (P06213 763-1382 limits assumed): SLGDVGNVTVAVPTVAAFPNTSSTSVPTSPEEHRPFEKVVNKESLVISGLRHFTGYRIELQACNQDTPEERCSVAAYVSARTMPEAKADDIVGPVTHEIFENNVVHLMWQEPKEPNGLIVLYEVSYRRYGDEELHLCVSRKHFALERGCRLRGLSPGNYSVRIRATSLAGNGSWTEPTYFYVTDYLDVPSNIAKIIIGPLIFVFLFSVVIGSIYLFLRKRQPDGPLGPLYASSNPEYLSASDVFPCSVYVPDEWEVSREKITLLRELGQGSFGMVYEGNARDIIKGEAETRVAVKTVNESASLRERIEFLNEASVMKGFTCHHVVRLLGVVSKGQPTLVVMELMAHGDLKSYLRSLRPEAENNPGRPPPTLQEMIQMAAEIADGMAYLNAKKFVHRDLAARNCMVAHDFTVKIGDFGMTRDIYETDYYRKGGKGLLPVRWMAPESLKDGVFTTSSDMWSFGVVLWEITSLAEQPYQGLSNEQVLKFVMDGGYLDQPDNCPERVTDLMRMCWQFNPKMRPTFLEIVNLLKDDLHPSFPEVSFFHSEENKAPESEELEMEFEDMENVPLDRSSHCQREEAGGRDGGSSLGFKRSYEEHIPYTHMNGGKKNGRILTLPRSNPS

Compound	IC50 (Insulin receptor) [nM]	IC50 [2] [nM]	solubility [3] [µM]	Papp A→B at 2 h, 2.5 mg/ml [4] [×10⁻⁶ cm/s]	Papp B→A at 2 h, 2.5 mg/ml [5] [×10⁻⁶ cm/s]	CLint scaled [6] [mL/min/kg]	CLint scaled [7] [mL/min/kg]	Cmax [8] [µM]	AUC(0-inf) [9] [µM·h]	clearance [10] [mL/min/kg]	Vd [11] [L/kg]	half-life [12] [h]	Cmax [13] [µM]	Tmax [14] [h]	AUC(0-inf) [15] [µM·h]	half-life [16] [h]	bioavailability [17] [%]	IC50 [1] [nM]
CN1CCC(Oc2ccc(C(=O)Nc3n[nH]c4ccc(Cc5cc(F)cc(F)c5)cc34)c(NC3CCOCC3)c2)CC1	196	9	59 (≈ 34 µg/mL)	0.3	2	12	49	6.93	33.1	8.16	2.62	4.94	0.8	6	11	4.08	29.3	43
CN(C)CCN(C)C(=O)c1ccc(C(=O)Nc2n[nH]c3ccc(Cc4cc(F)cc(F)c4)cc23)c(NC2CCOCC2)c1	457	15	51 (≈ 30.1 µg/mL)	2.7	19.8	57	42	10.3	7.86	38.8	4.41	2.83	–	–	–	–	–	50
COCCNc1cc(N2CCN(C)CC2)ccc1C(=O)Nc1n[nH]c2ccc(Cc3cc(F)cc(F)c3)cc12	1760	210	–	–	–	–	–	–	–	–	–	–	–	–	–	–	–	243
CN1CCN(c2ccc(C(=O)Nc3n[nH]c4ccc(Cc5cc(F)cc(F)c5)cc34)c(N)c2)CC1	1300	67	–	–	–	–	–	–	–	–	–	–	–	–	–	–	–	214
COCC(COC)Nc1cc(N2CCN(C)CC2)ccc1C(=O)Nc1n[nH]c2ccc(Cc3cc(F)cc(F)c3)cc12	1640	99	–	–	–	–	–	–	–	–	–	–	–	–	–	–	–	340
COC[C@@H](C)Nc1cc(N2CCN(C)CC2)ccc1C(=O)Nc1n[nH]c2ccc(Cc3cc(F)cc(F)c3)cc12	1070	72	–	–	–	–	–	–	–	–	–	–	–	–	–	–	–	74
CN1CCN(c2ccc(C(=O)Nc3n[nH]c4ccc(Cc5ccccc5)cc34)c(NC3CCOCC3)c2)CC1	1490	106	–	–	–	–	–	–	–	–	–	–	–	–	–	–	–	182
CN1CCC(Nc2cc(N3CCN(C)CC3)ccc2C(=O)Nc2n[nH]c3ccc(Cc4cc(F)cc(F)c4)cc23)CC1	330	15	–	1.5	–	–	–	–	–	–	–	–	–	–	–	–	–	438
CN1CCN(c2ccc(C(=O)Nc3n[nH]c4ccc(Cc5cc(F)cc(F)c5)cc34)c(NCCF)c2)CC1	462	14	16 (≈ 8.36 µg/mL)	2.4	1.5	24	18	7.58	24.7	11.7	4.76	5.92	1.88	4.33	31.5	9.86	99	49
CN1CCN(c2ccc(C(=O)Nc3n[nH]c4ccc(Cc5cc(F)ccc5F)cc34)c(NC3CCOCC3)c2)CC1	170	38	–	–	–	–	–	–	–	–	–	–	–	–	–	–	–	49
CN1CCN(c2ccc(C(=O)Nc3n[nH]c4ccc(Cc5cc(F)cc(F)c5)cc34)c(Nc3ccccc3)c2)CC1	9870	684	–	–	–	–	–	–	–	–	–	–	–	–	–	–	–	991
Cc1ccc(F)cc1Cc1ccc2[nH]nc(NC(=O)c3ccc(N4CCN(C)CC4)cc3NC3CCOCC3)c2c1	823	181	–	–	–	–	–	–	–	–	–	–	–	–	–	–	–	851

The next lines start with results.

IC50 (Insulin receptor) [nM]	IC50 [2] [nM]	solubility [3] [µM]	Papp A→B at 2 h, 2.5 mg/ml [4] [×10⁻⁶ cm/s]	Papp B→A at 2 h, 2.5 mg/ml [5] [×10⁻⁶ cm/s]	CLint scaled [6] [mL/min/kg]	CLint scaled [7] [mL/min/kg]	Cmax [8] [µM]	AUC(0-inf) [9] [µM·h]	clearance [10] [mL/min/kg]	Vd [11] [L/kg]	half-life [12] [h]	Cmax [13] [µM]	Tmax [14] [h]	AUC(0-inf) [15] [µM·h]	half-life [16] [h]	bioavailability [17] [%]	Compound	IC50 [1] [nM]
1190	135	–	–	–	–	–	–	–	–	–	–	–	–	–	–	–	COCCCNc1cc(N2CCN(C)CC2)ccc1C(=O)Nc1n[nH]c2ccc(Cc3cc(F)cc(F)c3)cc12	194
707	98	–	–	–	–	–	–	–	–	–	–	–	–	–	–	–	CN1CCN(c2ccc(C(=O)Nc3n[nH]c4ccc(Cc5cc(F)cc(F)c5)cc34)c(N[C@H]3CC[C@@H](O)CC3)c2)CC1	162
906	26	–	–	–	–	–	–	–	–	–	–	–	–	–	–	–	CN1CCN(c2ccc(C(=O)Nc3n[nH]c4ccc(Cc5cc(F)cc(F)c5)cc34)c(NCCO)c2)CC1	118
189	19	–	–	–	–	–	–	–	–	–	–	–	–	–	–	–	C[C@@H](c1cc(F)cc(F)c1)c1ccc2[nH]nc(NC(=O)c3ccc(N4CCN(C)CC4)cc3NC3CCOCC3)c2c1	16
3820	560	–	–	–	–	–	–	–	–	–	–	–	–	–	–	–	CN1CCN(c2ccc(C(=O)Nc3n[nH]c4ccc(Cc5cc(F)cc(F)c5)cc34)c(NC3CCCCC3)c2)CC1	609
653	18	84 (≈ 47 µg/mL)	1.1	1.9	40	229	5.69	7.97	32.1	2.63	1.52	0.36	0.83	1.51	2.25	18	O=C(Nc1n[nH]c2ccc(Cc3cc(F)cc(F)c3)cc12)c1ccc(CN2CCCCC2)cc1NC1CCOCC1	38
1810	73	–	–	–	–	–	–	–	–	–	–	–	–	–	–	–	CN1CCN(c2ccc(C(=O)Nc3n[nH]c4ccc(Cc5cc(F)cc(F)c5)cc34)cc2)CC1	253
1160	59	–	–	–	–	–	–	–	–	–	–	–	–	–	–	–	C[C@H](c1cc(F)cc(F)c1)c1ccc2[nH]nc(NC(=O)c3ccc(N4CCN(C)CC4)cc3NC3CCOCC3)c2c1	41
41	3	103 (≈ 56.3 µg/mL)	0.6	4.5	7.5	52	40.5	42.2	7.01	1.4	4.76	0.081	6	1.33	9.63	2.9	O=C(Nc1n[nH]c2ccc(Cc3cc(F)cc(F)c3)cc12)c1ccc(N2CCNCC2)cc1NC1CCOCC1	13
3690	378	–	–	–	–	–	–	–	–	–	–	–	–	–	–	–	CN1CCN(c2ccc(C(=O)Nc3n[nH]c4ccc(Cc5cc(F)cc(F)c5)cc34)c(NCc3ccccc3)c2)CC1	1260
353	67	–	–	–	–	–	–	–	–	–	–	–	–	–	–	–	CN1CCN(c2ccc(C(=O)Nc3n[nH]c4ccc(Cc5cc(F)cc(F)c5)cc34)c(NCC3CN(C)C3)c2)CC1	386
189	10	7 (≈ 4.02 µg/mL)	1.8	5.1	25	45	7.06	13.1	21.3	3.02	3.01	0.36	1	1.25	–	7.3	CN1CCN(c2ccc(C(=O)Nc3n[nH]c4ccc(Cc5cc(F)cc(F)c5)cc34)c(N[C@H]3CC[C@H](O)CC3)c2)CC1	68
427	30	–	–	–	–	–	–	–	–	–	–	–	–	–	–	–	CN1CCN(c2ccc(C(=O)Nc3n[nH]c4ccc(Cc5cccc(F)c5)cc34)c(NC3CCOCC3)c2)CC1	18

Reference: ChEMBL document CHEMBL3804811 (J Med Chem, 2016)
